The test system of test [1] is bone marrow cells (megakaryocyte colony formation). The test can be described thus: Megakaryocyte colony formation-stimulating activity (Test Example 1). The settings on record: with IL-3 (100 U/ml), 7 days, control (IL-3 alone) defined as 100. Type of test: cell-based, BALB/c mouse. How it is done: An eight-weeks-old BALB/c mouse was killed. Its femurs and cervical vertebrae were taken out, and both end sections thereof were cut off. Bone marrow cells were collected from the pieces cut off from the femurs and cervical vertebrae using a syringe containing IMDM (430-2200EA prepared by Gibco Co.), and then blown into a test tube. The test tube was allowed to stand for 5 minutes, and the supernatant was collected with a piper. To a reaction mixture comprising the bone marrow cells (50,000 cells), bovine serum albumin (2%: A4508 made by Sigma Co.), transferrin (600 μg/ml: 652202 made by Boehringer Mannheim Co.), IL-3 (100 U/ml), cholesterol (16 μg/ml: 036-0641 made by Wako Co.) and agar (0.6%: 0142-02 made by Difco Laboratories) were separately added the test compounds at various concentrations, and 1 ml each of the mixtures was put into a 35-mm dish (Lux Co.), followed by incubation under the conditions of 37° C. 5% CO2 and a humidity of 95% or more for 7 days. Separately, IL-3 alone was added to the bone marrow cells to prepare a control. After the incubation was completed, the agar was dried over a filter paper (1001-055 made by Whatman Co.) and then fixed with 2.5% glutaraldehyde, followed by acetylcholinesterase staining (ACHE staining).
The ACHE staining was carried out by the method described below.
ACHE staining: To each sample was added a solution comprising 0.67 mg/ml acetylthiocholine iodide, 2.94 mg/ml sodium citrate, 7.5 mg/ml copper (II) sulfate and 1.65 mg/ml potassium ferricyanide, and the mixture was allowed to stand at room temperature in the dark for 4-6 hours.
A group of 4 or more megakaryocytes which were stained reddish brown was regarded as a colony, and the number of colonies per dish was calculated using a microscope. The results are shown in Table 2 as relative values to the control.

A further test relates to platelets. The test can be described thus: Platelet production-stimulating activity in mice (Test Example 2). The settings on record: intraperitoneal, once a day for 5 days, platelets counted on day 15, A test group, B control group. Type of test: in vivo, male BALB/c mice. An excerpt: A test compound was intraperitoneally administered to four 7-week-old male BALB/c mice per group once a day for consecutive 5 days (day 1 to day 5). A control group (4 mice per group) received only the solvent (5% Tween water). The blood was collected from the fundus oculi vein of each animal on the 15th day from the start of administration (day 15), and the number of the platelets was counted with a microcell counter (Model CC-180A, manufactured by Toa Iryo Denshi Co.). The rate of increase of the number of platelets in the test group (average) over the control (average) was calculated according to the following formula to evaluate the effect of the test compound.
Rate of Increase = A/B × 100
A: the number of platelets in test group
B: the number of platelets in control group

Take `CN[C@@H]1C[C@H]2O[C@@](C)([C@@H]1OC)n1c3ccccc3c3c4c(c5c6ccccc6n2c5c31)C(=O)N(CO)C4` [Compound 1]: the “Rel. Value (number of megakaryocyte colonies per dish, relative to control)” value in test [1] (Concn. 1 nM) was found to be 129.

Regarding `CN[C@@H]1C[C@H]2O[C@@](C)([C@@H]1OC)n1c3ccccc3c3c4c(c5c6cc(C)ccc6n2c5c31)C(=O)N(C)C4` [Compound 8], in the test on platelets (25 mg/kg), the “Rate of increase (number of platelets, A/B × 100)” value (shortened to “Rate of increase”) worked out at 134%. The “Rel. Value (number of megakaryocyte colonies per dish, relative to control)” value in test [1] (Concn. 10 nM) turned out to be 157.

Consider `CN[C@@H]1C[C@H]2O[C@@](C)([C@@H]1OC)n1c3ccccc3c3c4c(c5c6cc(N)ccc6n2c5c31)C(=O)N(C)C4` [Compound 12], for which the “Rel. Value (number of megakaryocyte colonies per dish, relative to control)” value in test [1] (Concn. 10 nM) came out at 126.

With `CN[C@@H]1C[C@H]2O[C@@](C)([C@@H]1OC)n1c3ccc(N)cc3c3c4c(c5c6cc(N)ccc6n2c5c31)C(=O)N(C)C4` [Compound 16], the “Rel. Value (number of megakaryocyte colonies per dish, relative to control)” value in test [1] (Concn. 1 nM) came to 125.

For the compound `CN[C@@H]1C[C@H]2O[C@@](C)([C@@H]1OC)n1c3ccc(OC(=O)C(C)(C)C)cc3c3c4c(c5c6cc(OC(=O)C(C)(C)C)ccc6n2c5c31)C(=O)N(C)C4` [Compound 22], the “Rate of increase” value in the test with platelets (50 mg/kg) came to 168%.

In the case of `CN[C@@H]1C[C@H]2O[C@@](C)([C@@H]1OC)n1c3ccccc3c3c4c(c5c6cc(C=NN(C)C)ccc6n2c5c31)C(=O)N(C)C4` [Compound 28], the “Rate of increase” value with platelets (12.5 mg/kg) was 156%. Further, the “Rel. Value (number of megakaryocyte colonies per dish, relative to control)” value in test [1] (Concn. 1 nM) turned out to be 134.

On to `CN[C@@H]1C[C@H]2O[C@@](C)([C@@H]1OC)n1c3ccccc3c3c4c(c5c6cc(CSCCN(C)C)ccc6n2c5c31)C(=O)N(C)C4` [Compound 30], for which the “Rel. Value (number of megakaryocyte colonies per dish, relative to control)” value in test [1] (Concn. 1 nM) was found to be 116.

The record behind these values is patent US5604219A, “Indolocarbazole derivatives that stimulate platelet production” (Kyowa Hakko Kogyo Co., Ltd., priority 1994, dated 1997).
